Test results reported in PubChem BioAssay AID179 (DTP/NCI, 2004).
pEC50, pIC50: −log10 of the molar value. Values joined by “and” are separate entries in the source; they are usually repeats but may differ in a detail not shown here. Equal entries are not always repeated. Active and inactive are the calls of the source.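 Rule for the calls: active = compounds giving half or more protection of infected cells from virus-caused growth loss, again on retest; inactive = the rest.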 Where a SMILES comes first, the peptide text is derived from it. The star is where a group is joined. Cbz = O=C(OCc1ccccc1)*; NHNH2 = NN*

Tested on: CEM cells HIV-1 protection, formazan growth assay
Assay: NCI AIDS Antiviral Assay
Details: for pIC50: measured here: growth of uninfected CEM cells
Summary of the method: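 Screen of anti-HIV-1 activity in human CEM cells using a formazan-based growth measurement at five drug concentrations. Hits with 50% or greater protection were repeated, and confirmation required reproducible complete protection.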

| Compound | outcome | pEC50 | pIC50 |
| --- | --- | --- | --- |
| N#C/C(=C1\OC(=N)C(c2ccc(Cl)cc2Cl)C1=O)c1ccc(Cl)cc1Cl (centres undefined) | inactive | – | – |
| COC(=O)C1(C(=O)OC)CCCC2=NOC3CCC1C23 (centres undefined) | – | < 3.05 | 3.24 |
| O=C(Nc1ccc(Cl)cc1)C(=O)C(C(=O)c1ccccc1-c1ccccc1)C1OC(=O)c2ccccc21 (centres undefined) | – | < 4.15 | 4.88 |
| CN1c2ccccc2C(=O)NC12CCN(Cc1ccccc1)CC2 | – | < 3.70 | 3.92 |
| COc1ccc(CC2=CC(=O)C(=O)C=C2C)cc1 | – | < 4.25 | 4.52 |
| Cc1cc(=O)n2nc(SCc3ccccc3)sc2n1 | – | < 3.70 | 4.09 |
| CN(C)CC1CCCC1=O (centres undefined) | inactive | < 3.70 | 4.55 |
| Cc1ccc(C2=Nn3c(nc4sc(C)c(C)c4c3=O)SC2)cc1 | – | < 3.70 | < 3.70 |
| COc1cc2ccc3c4cc(OC)c(OC)cc4c[n+](C)c3c2cc1O | inactive | – | – |
| CN=c1nc2n3c(cccc3n1)NC(C)=N2 | – | < 4.00 | < 4.00 |
| CCC(C)CCOC(=O)c1ccc(N=Cc2ccc(C=Nc3ccc(C(=O)OCCC(C)CC)cc3)cc2)cc1 (centres undefined) | – | < 5.18 | < 5.18 |
| COC(=O)c1sc2nc(Nc3ccccc3)c(=Nc3ccccc3)sc2c1C | – | < 3.70 | < 3.70 |
| O=C1CCC(=O)N1Cc1ccccc1N=[N+]([O-])c1ccccc1CN1C(=O)CCC1=O | inactive | – | < 3.70 |
| COc1ccc2c(c1OC)CC1COCC21 (centres undefined) | – | < 3.70 | < 3.70 |
| CC(N)S(=O)(=O)O (centres undefined) | – | < 3.70 | 3.80 |
| O=C1CCSC(=O)N1c1ccccc1 | – | < 3.70 | < 3.70 |
| CC(c1ccccc1)n1cncc1C(=O)NN1CCN(C)CC1 (centres undefined) | – | < 3.70 | < 3.70 |
| COc1c(C)c2c(c(C)c1Cl)Oc1c(C=O)c(O)c(Cl)c(C)c1C(=O)O2 | – | < 4.74 | < 4.74 |
| CC(C)(C)c1cc2c(OP(c3ccccc3)c3ccccc3)c(c1)Cc1cc(C(C)(C)C)cc(c1OP(c1ccccc1)c1ccccc1)Cc1cc(C(C)(C)C)cc(c1OP(c1ccccc1)c1ccccc1)Cc1cc(C(C)(C)C)cc(c1OP(c1ccccc1)c1ccccc1)C2 | – | < 5.98 | < 5.98 |
| ONC1=Nc2cc(Cl)ccc2C(=S)N2CSCC12 (centres undefined) | – | < 3.70 | < 3.70 |
| COc1c(C)c(O)c2c(c1C)OC(c1ccccc1)CC2=O (centres undefined) | – | < 4.76 | < 4.76 |
| [Li+] | inactive | – | – |
| NNC(=O)N/N=C1\CNC(=O)C(=O)C1c1nc2ccccc2s1 (centres undefined) | inactive | – | – |
| Oc1c(OCc2nnc(CCCCCCCCc3nnc(COc4ccc5ccccc5c4O)n3Nc3ccccc3)n2Nc2ccccc2)ccc2ccccc12 | – | < 5.70 | < 5.70 |
| CC(=O)Nc1c(Nc2ccc3c(=O)[nH]ccc3c2C)cc[nH]c1=O | – | < 3.40 | 3.72 |
| CN(C)CC/C(=N\Nc1ccc(Cl)cc1Cl)c1ccccc1 | inactive | – | – |
| Cc1cc(S(=O)(=O)Nc2nc(N)n(-c3ccccc3)n2)c(S)cc1Cl | – | 3.89 | 3.33 |

| Compound | outcome | pEC50 | pIC50 |
| --- | --- | --- | --- |
| N.N.N.O=N[O-].O=N[O-].O=N[O-].[Co+3] | inactive | – | – |
| CN1CC[C@@H](O)C(CNC23CC4CC(CC(C4)C2)C3)C1 (some centres undefined) | – | < 3.70 | < 3.70 |
| Cc1cc(=O)[nH]c(NNC(C#N)c2ccc(N(C)C)cc2)n1 (centres undefined) | – | < 4.20 | < 4.20 |
| CCOc1cnn(-c2ccccc2)c(=O)c1SCc1ccccc1 | – | < 4.11 | 4.25 |
| COC(=O)CC(NC(=O)OCc1ccccc1)C(=O)NC(CC(=O)OC)C(=O)NC(CC(=O)OC)C(=O)NC(CC(=O)OC)C(=O)NC(CC(=O)OC)C(=O)NC(CC(=O)OC)C(=O)NN (centres undefined) (Cbz-D(OMe)D(OMe)D(OMe)D(OMe)D(OMe)D(OMe)-NHNH2; configuration not given here) | – | < 4.00 | < 4.00 |
| CCOc1ccc(N2C(=O)NC3(c4ccccc4)N(C)C(=O)N(C)C23c2ccccc2)cc1 (centres undefined) | inactive | – | – |
| C/C(=N/NC(=S)Nc1ccccc1Cl)c1ccccn1 | – | < 6.70 | 7.43 |
| CP(C)(=S)P(C)(C)=S | – | < 3.70 | 3.96 |
| O=c1c(NO)c([N+](=O)[O-])cnn1-c1ccccc1 | – | < 4.05 | 6.50 |
| N#CC1=C2Sc3ccccc3N2[C@H](c2ccccc2)[C@H]2COC(=O)[C@@H]12 | – | < 3.82 | 4.42 |
| COC(=O)c1ccccc1NC(=O)C(=O)CC(=O)CC(c1ccccc1)c1c(O)c2ccccc2oc1=O (centres undefined) | – | < 3.31 | 3.61 |
| COc1ccc(/C=C/C(=O)c2sc(-n3nc(-c4ccccc4)cc3-c3ccccc3)nc2C)cc1 | – | < 4.96 | < 4.96 |
| C/C(=N\NC(=O)CC(=O)Nc1ccccc1Cl)c1cc2cc(N=Nc3ccccc3Cl)ccc2oc1=O | – | < 4.73 | < 4.73 |
| CS(=O)(=O)N(CCC#N)c1ccc(/C=N/NC(=O)CC(=O)Nc2cccc(Cl)c2)cc1 | – | < 3.69 | < 3.69 |
| Cc1nc2ccc(Br)cc2c(=O)n1-c1ccc(NC2OC(CO)C(O)C(O)C2O)cc1 (centres undefined) | – | < 3.70 | < 3.70 and 3.71 |
| COC(=O)c1c(C)cccc1C1CN=NC12Cc1c(C)cccc1C2=O (centres undefined) | – | 4.44 | 4.14 |
| COC(=O)C1(CCC(=O)N(C)c2ccccc2)NNC2C(=O)N(c3ccccc3)C(=O)C21 (centres undefined) | – | < 3.70 | < 3.70 |
| Cc1ccc(/C=C2\CN(C)CC3C2=NC(=S)NC3c2ccc(C)cc2)cc1 (centres undefined) | – | < 3.70 | 4.61 |
| Nc1ccc(S(N)(=O)=O)cc1SSc1cc(S(N)(=O)=O)ccc1N | – | 4.26 | 3.88 |
| Cc1cc2ccccc2oc(=O)/c1=N\Nc1ccccc1 | – | < 3.70 | 4.46 |
| O=C(CC(=O)Nc1ccccc1F)N/N=C/c1ccccc1 | inactive | – | – |
| Oc1ccc2ccccc2c1-c1c(Nc2ccccc2)ccc2ccccc12 | – | < 4.30 | 5.05 |
| COC1/C=C/OC2(C)Oc3c(C)c(O)c4c(O)c(c(C=NN5CCCCCCCC5)c(O)c4c3C2=O)NC(=O)/C(C)=C/C=C/C(C)C(O)C(C)C(O)C(C)C(OC(C)=O)C1C (centres undefined) | inactive | – | – |
| C[C@]12CC[C@H](O)CC1=CC[C@@H]1C2CC[C@]2(C)Nc3c(cnn3-c3ccccc3)CC12 (some centres undefined) | inactive | – | – |
| CC(c1ccccc1)/[N+]([O-])=C/c1ccccc1 (centres undefined) | – | < 2.95 | < 2.95 |
| C=C1N(c2nc(Cl)nc(Cl)n2)c2ccccc2C1(C)C | – | < 3.70 | 3.73 |
| CC(=O)N(C(C)=O)c1cc2c3c(c1)CCCN3CCC2 | – | < 3.70 | 3.74 |

| Compound | outcome | pEC50 | pIC50 |
| --- | --- | --- | --- |
| CCCCCCCCSCC1OC2OC3C(CSCCCCCCCC)OC(OC4C(CSCCCCCCCC)OC(OC5C(CSCCCCCCCC)OC(OC6C(CSCCCCCCCC)OC(OC7C(CSCCCCCCCC)OC(OC8C(CSCCCCCCCC)OC(OC1C(OS(=O)(=O)O)C2OS(=O)(=O)O)C(OS(=O)(=O)O)C8OS(=O)(=O)O)C(OS(=O)(=O)O)C7OS(=O)(=O)O)C(OS(=O)(=O)O)C6OS(=O)(=O)O)C(OS(=O)(=O)O)C5OS(=O)(=O)O)C(OS(=O)(=O)O)C4OS(=O)(=O)O)C(OS(=O)(=O)O)C3OS(=O)(=O)O (centres undefined) | – | 5.59 | 4.30 |
| CCC(CCl)NC(=O)Nc1ccc(S(=O)(=O)c2ccc([N+](=O)[O-])cc2)cc1 (centres undefined) | – | < 4.96 | 5.06 |
| CC(=[OH+])[CH-]C(C)=NCC(C)N=C(C)CC(C)=[OH+].[Cu+2] (centres undefined) | – | < 3.70 | 4.68 |
| Cn1cc(NC(=O)Nc2cc(C(=O)Nc3cc(C(=O)Nc4cc(C(=O)Nc5ccc6cc(S(=O)(=O)O)cc(S(=O)(=O)O)c6c5)n(C)c4)n(C)c3)n(C)c2)cc1C(=O)Nc1cc(C(=O)Nc2cc(C(=O)Nc3ccc4cc(S(=O)(=O)O)cc(S(=O)(=O)O)c4c3)n(C)c2)n(C)c1 | – | 6.01 | 3.93 |
| NCCSSSSCCN | – | < 3.88 | 4.46 |
| COc1ccc(C2=NNC(=O)CC2)cc1OC | – | < 2.97 | 3.26 |
| CCN(CC)CCC(=O)NC1c2ccccc2Sc2c(C)cccc21 (centres undefined) | – | < 3.29 | 4.35 |
| N#CC(CCN1CCC(Nc2ccccc2)(c2nnnn2C2CCCCC2)CC1)(c1ccccc1)c1ccccc1 | – | < 3.70 | < 3.70 |
| COc1ccc(C(N)=O)cc1N=NN(C)C | – | < 2.95 | 3.30 |
| CN1N(c2ccccc2)C(=O)C2=NC=C(C(=O)c3ccc(Cl)cc3)C(=N)C21C (centres undefined) | – | < 3.70 | < 3.70 |
| CC(=O)O[C@]1(C(C)=O)CC[C@H]2[C@@H]3C=C(Cl)C4=CC(=O)[C@@H]5C[C@@H]5[C@]4(C)[C@H]3CC[C@@]21C | – | < 3.70 | < 3.70 |
| Cc1cn(C2COC(CO)C2CO)c(=O)[nH]c1=O (centres undefined) | – | 4.35 | < 3.70 |
| CC(C)=CCC[C@@H](C)C1=C(Nc2ccccc2)C(O)=C(C)C(=O)C1=O | – | < 3.70 | 5.52 |
| CCOC(=O)/C(F)=C/c1cccc(F)c1 | – | < 3.77 | < 3.77 |
| COC1/C=C\C=C(/C)C(=O)NC2=CC(=O)C(NC3CC3)=C(CC(C)CC(OC)C(O)C(C)/C=C(/C)C1OC(N)=O)C2=O (centres undefined) | inactive | – | – |
| COc1ccc(/C=C2\CN(C)C/C(=C\c3ccc(OC)cc3)C2=O)cc1 | – | < 3.70 | 4.07 |
| CCOC(=O)c1c(N2CCCC2)ncn(-c2ccccc2)c1=S | – | < 3.70 | < 3.70 |
| N#CC1(C#N)NC(c2ccsc2)C(C#N)(C#N)NC1c1ccsc1 (centres undefined) | – | < 3.70 | 3.94 |
| CCCCCCCCOC1N(C2CC(N=[N+]=[N-])C(CO)O2)C(=O)NC(=O)[C@]1(C)Br (some centres undefined) | – | 6.37 | 4.90 |
| COc1ccc2cc1Oc1ccc(cc1)CC1c3c(cc(OC)c4c3Oc3cc5c(cc3O4)CCN[C@@H]5C2)CCN1C (some centres undefined) | inactive | – | – |
| O=C1Cc2ccccc2CCc2ccccc21 | – | 3.87 | < 3.70 |
| O=S(Cc1cc2c(cc1Br)OCO2)c1ccccc1 (centres undefined) | – | < 4.40 | < 4.40 |
| C[n+]1c2ccccc2n2c3ccccc3c(NCc3ccco3)c(C#N)c21 | – | < 4.70 | 5.83 |
| COc1ccc(N[C@H](CS(=O)c2ccc(C)cc2)C(F)(F)F)cc1 (some centres undefined) | – | < 3.70 | < 3.70 |
| O=[N+]([O-])c1ccc(O)c(CN(Cc2ccccc2)Cc2c(O)ccc3ccccc23)c1 | – | < 3.70 | < 3.70 |
| Cc1[nH]n(C(=N)N)c(=O)c1CCO | – | < 3.70 | < 3.70 |
